From BindingDB's records for doi:10.1021/np200036v (National Engineering Research Center For The Emergency …, 2020)

Columns and labels:
[1] = target: Receptor-type tyrosine-protein phosphatase beta (Homo sapiens, UniProt P23467); test: Inhibition of recombinant human PTPbeta using DiFMUP as substrate preincubated for 10 mins followed by substrate addition and measured after 2 hrs
[2] = target: T1, Tyrosine-protein phosphatase non-receptor type 1 (Homo sapiens, UniProt P18031); test: Inhibition of recombinant PTP1B (unknown origin)
T1 sequence (P18031 whole entry): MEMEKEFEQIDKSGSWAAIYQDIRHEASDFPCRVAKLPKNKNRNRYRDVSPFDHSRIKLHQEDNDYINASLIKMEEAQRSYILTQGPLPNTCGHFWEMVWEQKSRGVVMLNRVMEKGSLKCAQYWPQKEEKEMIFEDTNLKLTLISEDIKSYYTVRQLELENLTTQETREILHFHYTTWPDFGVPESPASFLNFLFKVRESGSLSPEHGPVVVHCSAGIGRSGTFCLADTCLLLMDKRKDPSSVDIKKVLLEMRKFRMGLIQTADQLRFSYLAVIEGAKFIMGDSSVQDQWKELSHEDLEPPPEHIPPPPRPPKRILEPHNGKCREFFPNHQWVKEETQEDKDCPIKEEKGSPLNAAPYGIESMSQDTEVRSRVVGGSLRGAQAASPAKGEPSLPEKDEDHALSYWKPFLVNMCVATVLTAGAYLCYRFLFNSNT

[3] = target: T2, Tyrosine-protein phosphatase non-receptor type 11 (Homo sapiens, UniProt Q06124); test: Inhibition of recombinant SHP2 (unknown origin)
T2 sequence (Q06124 whole entry): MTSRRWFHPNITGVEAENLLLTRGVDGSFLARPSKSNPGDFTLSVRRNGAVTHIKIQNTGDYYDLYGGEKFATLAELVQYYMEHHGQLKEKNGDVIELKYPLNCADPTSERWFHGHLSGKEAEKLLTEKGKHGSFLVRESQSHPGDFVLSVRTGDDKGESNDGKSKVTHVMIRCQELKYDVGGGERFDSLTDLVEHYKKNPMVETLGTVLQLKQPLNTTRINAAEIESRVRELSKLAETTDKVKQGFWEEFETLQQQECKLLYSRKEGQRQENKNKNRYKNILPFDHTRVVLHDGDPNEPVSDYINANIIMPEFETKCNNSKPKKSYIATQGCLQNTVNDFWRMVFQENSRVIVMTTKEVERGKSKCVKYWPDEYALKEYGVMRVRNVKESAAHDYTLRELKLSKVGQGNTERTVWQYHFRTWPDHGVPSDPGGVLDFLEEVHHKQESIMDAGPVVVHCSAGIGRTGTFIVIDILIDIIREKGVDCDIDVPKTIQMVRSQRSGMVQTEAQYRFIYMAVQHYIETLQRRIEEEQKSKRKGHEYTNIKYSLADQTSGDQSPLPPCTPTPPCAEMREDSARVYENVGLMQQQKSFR

[4] = target: T3, Tyrosine-protein phosphatase non-receptor type 2 (Homo sapiens, UniProt P17706); test: Inhibition of recombinant TC-PTP (unknown origin)
T3 sequence (P17706 whole entry): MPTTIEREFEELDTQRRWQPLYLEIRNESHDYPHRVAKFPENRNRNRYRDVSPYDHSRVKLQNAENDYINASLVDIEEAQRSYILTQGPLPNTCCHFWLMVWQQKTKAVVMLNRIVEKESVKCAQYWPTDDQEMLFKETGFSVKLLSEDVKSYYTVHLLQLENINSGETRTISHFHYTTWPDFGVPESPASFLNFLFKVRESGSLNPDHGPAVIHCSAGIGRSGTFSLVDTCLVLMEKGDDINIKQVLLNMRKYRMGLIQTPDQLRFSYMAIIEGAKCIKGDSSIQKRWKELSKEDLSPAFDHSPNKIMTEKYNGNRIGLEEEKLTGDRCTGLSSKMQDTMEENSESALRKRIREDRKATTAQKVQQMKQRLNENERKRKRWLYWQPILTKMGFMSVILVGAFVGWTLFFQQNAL

[5] = target: Receptor-type tyrosine-protein phosphatase F (Homo sapiens, UniProt P10586); test: Inhibition of recombinant LAR (unknown origin)
Chain of Receptor-type tyrosine-protein phosphatase F (P10586 whole entry): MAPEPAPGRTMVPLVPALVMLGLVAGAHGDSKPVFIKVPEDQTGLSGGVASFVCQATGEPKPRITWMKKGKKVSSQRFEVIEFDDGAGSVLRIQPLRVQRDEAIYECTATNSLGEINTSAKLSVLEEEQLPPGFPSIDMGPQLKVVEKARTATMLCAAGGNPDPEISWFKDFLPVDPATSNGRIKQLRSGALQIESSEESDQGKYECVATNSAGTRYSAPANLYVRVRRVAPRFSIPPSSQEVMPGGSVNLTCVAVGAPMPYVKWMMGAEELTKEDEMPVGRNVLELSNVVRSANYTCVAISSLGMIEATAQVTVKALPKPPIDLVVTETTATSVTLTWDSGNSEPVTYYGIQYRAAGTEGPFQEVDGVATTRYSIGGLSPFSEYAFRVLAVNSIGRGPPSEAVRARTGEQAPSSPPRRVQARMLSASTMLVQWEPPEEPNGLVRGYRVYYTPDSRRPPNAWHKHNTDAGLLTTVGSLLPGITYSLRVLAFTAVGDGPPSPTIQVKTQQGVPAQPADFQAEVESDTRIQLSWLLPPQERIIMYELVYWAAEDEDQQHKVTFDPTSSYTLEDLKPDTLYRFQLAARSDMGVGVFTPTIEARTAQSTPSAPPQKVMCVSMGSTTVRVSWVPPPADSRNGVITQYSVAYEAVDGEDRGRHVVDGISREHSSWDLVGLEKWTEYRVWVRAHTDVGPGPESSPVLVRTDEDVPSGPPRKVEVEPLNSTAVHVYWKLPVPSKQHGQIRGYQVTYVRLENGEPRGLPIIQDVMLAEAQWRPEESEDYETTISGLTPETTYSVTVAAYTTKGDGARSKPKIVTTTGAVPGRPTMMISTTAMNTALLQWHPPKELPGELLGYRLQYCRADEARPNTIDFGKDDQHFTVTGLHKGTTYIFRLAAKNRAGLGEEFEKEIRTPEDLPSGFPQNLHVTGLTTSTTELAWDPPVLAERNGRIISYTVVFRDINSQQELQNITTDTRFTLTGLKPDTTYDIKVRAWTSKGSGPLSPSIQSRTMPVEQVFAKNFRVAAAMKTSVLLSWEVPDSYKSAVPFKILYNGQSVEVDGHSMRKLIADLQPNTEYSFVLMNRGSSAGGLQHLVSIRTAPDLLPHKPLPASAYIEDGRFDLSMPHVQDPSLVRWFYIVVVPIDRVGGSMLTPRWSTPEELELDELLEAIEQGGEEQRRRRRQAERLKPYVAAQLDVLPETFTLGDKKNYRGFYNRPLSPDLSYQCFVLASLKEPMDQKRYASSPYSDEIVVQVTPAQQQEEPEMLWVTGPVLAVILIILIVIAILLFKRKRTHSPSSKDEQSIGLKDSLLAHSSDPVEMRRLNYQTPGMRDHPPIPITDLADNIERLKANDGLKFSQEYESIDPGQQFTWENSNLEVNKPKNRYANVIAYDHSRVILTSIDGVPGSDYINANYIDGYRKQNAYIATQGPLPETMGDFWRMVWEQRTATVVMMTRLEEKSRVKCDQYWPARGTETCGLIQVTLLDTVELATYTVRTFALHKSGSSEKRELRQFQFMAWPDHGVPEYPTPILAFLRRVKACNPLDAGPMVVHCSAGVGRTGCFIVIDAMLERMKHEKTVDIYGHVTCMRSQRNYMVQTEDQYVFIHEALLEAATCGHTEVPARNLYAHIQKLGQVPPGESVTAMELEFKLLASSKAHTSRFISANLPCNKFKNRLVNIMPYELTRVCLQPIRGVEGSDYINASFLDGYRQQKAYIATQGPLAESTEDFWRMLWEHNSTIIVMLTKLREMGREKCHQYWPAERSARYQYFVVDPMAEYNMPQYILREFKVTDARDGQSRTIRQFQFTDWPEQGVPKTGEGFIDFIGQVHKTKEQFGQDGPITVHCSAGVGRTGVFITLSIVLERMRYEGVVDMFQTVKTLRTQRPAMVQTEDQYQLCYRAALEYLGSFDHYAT

Chain of Receptor-type tyrosine-protein phosphatase beta (P23467 whole entry): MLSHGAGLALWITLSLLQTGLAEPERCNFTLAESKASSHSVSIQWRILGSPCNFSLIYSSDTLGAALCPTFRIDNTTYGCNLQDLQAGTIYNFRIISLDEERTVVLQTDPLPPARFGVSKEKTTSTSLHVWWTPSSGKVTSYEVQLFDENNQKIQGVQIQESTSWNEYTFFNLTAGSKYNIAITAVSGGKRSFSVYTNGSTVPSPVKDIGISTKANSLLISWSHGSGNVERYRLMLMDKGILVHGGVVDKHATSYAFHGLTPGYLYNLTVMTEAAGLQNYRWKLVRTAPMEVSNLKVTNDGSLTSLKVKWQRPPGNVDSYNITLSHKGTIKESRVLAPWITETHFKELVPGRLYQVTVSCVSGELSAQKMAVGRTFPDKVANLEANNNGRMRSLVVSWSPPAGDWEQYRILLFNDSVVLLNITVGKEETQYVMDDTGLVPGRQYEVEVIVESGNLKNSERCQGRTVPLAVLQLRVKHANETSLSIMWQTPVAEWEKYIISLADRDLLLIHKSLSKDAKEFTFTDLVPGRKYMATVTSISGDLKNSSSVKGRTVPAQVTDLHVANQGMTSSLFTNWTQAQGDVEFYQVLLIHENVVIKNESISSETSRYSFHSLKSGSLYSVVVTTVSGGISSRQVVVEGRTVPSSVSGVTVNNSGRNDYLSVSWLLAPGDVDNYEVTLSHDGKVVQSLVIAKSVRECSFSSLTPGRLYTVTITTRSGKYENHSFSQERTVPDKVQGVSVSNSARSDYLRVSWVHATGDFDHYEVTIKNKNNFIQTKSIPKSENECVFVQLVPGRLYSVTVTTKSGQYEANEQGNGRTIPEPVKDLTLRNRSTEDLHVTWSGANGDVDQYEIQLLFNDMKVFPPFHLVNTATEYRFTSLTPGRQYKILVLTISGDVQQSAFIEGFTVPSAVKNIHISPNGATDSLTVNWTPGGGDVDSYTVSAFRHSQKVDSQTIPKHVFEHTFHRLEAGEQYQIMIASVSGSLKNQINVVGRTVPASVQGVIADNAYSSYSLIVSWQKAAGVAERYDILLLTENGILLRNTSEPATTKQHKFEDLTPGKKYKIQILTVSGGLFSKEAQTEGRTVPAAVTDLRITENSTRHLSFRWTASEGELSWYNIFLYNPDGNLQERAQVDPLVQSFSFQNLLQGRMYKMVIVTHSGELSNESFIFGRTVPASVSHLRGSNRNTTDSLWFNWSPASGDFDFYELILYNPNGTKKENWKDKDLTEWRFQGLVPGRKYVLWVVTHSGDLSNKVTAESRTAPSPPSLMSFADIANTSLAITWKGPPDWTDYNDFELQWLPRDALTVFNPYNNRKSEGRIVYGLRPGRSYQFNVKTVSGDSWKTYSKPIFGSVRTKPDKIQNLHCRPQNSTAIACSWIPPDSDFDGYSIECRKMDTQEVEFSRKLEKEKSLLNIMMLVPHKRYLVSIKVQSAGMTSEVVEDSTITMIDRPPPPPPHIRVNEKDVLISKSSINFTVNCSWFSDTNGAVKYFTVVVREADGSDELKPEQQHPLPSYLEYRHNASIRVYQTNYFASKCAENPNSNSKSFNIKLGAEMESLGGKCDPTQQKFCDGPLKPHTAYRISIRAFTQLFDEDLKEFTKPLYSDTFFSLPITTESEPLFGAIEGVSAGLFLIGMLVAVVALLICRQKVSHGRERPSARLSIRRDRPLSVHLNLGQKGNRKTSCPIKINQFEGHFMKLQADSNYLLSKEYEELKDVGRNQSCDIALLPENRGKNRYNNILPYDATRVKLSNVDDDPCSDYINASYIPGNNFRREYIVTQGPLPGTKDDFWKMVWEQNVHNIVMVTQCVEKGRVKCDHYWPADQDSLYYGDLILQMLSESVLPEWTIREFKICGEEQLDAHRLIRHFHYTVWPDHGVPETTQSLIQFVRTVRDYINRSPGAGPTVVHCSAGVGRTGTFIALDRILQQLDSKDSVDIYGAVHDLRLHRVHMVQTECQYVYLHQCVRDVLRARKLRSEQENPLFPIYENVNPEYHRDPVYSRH

Structure (SMILES) | IC50 [1] [µM] | IC50 [2] [µM] | IC50 [3] [µM] | IC50 [4] [µM] | IC50 [5] [µM]
O=C(Cc1cccc(F)c1)N(Cc1ccc(NS(=O)(=O)O)cc1)c1ccccc1 | 1.72 |  |  |  | 
COC(=O)N[C@@H](Cc1ccccc1)C(=O)N(Cc1ccc(NS(=O)(=O)O)cc1)c1ccccc1 | 3.42 |  |  |  | 
O=C(Cc1ccc(Br)c(F)c1)N(Cc1ccc(NS(=O)(=O)O)cc1)c1ccccc1 | 1.78 |  |  |  | 
O=C(Cc1cccc(F)c1)N(Cc1ccc(NS(=O)(=O)O)cc1)c1nc(-c2ccccc2)cs1 | 4.1 |  |  |  | 
O=C(c1cccnc1Cl)N(Cc1ccc(NS(=O)(=O)O)cc1)c1nc(-c2ccccc2)cs1 | 2.98 | 22.2 | 19.6 | 32.8 | 42.3
O=C(c1ccccc1Cl)N(Cc1ccc(NS(=O)(=O)O)cc1)c1nc(-c2ccccc2)cs1 | 4.67 |  |  |  | 
COc1ccc(S(=O)(=O)N(Cc2ccc(NS(=O)(=O)O)cc2)c2nc(-c3ccccc3)cs2)cc1 | 2.07 |  |  |  | 
O=S(=O)(O)Nc1ccc(CN(c2nc(-c3ccccc3)cs2)S(=O)(=O)c2cccc(Cl)c2)cc1 | 1.32 |  |  |  | 
COc1cccc(S(=O)(=O)N(Cc2ccc(NS(=O)(=O)O)cc2)c2nc(-c3cccs3)cs2)c1 | 1.41 |  |  |  | 
O=S(=O)(O)Nc1ccc(CN(c2nc(-c3cccs3)cs2)S(=O)(=O)c2cccc(F)c2)cc1 | 1.07 |  |  |  | 
O=[N+]([O-])c1ccc(CNc2ccccc2)cc1 |  | 15.7 | 55.3 | 20.1 | 76.4

The remaining compounds from weak to strong by IC50 [1], led by results:

IC50 [1] [µM] | IC50 [2] [µM] | IC50 [3] [µM] | IC50 [4] [µM] | IC50 [5] [µM] | Structure (SMILES)
6.61 |  |  |  |  | COC(=O)N[C@@H](Cc1ccccc1)C(=O)N(Cc1ccc(NS(=O)(=O)O)cc1)c1nc(-c2cccs2)cs1
6.4 |  |  |  |  | CC(C)(C)OC(=O)N1CCC(C(=O)N(Cc2ccc(NS(=O)(=O)O)cc2)c2nc(-c3ccccc3)cs2)CC1
5.94 |  |  |  |  | O=C(c1ccccc1Cl)N(Cc1ccc(NS(=O)(=O)O)cc1)c1nc(-c2cccs2)cs1
3.46 |  |  |  |  | COC(=O)N[C@@H](Cc1ccccc1)C(=O)N(Cc1ccc(NS(=O)(=O)O)cc1)c1nc(-c2ccccc2)cs1
1.81 |  |  |  |  | COc1ccc(S(=O)(=O)N(Cc2ccc(NS(=O)(=O)O)cc2)c2nc(-c3cccs3)cs2)cc1
1.75 |  |  |  |  | O=S(=O)(O)Nc1ccc(CN(c2nc(-c3cccs3)cs2)S(=O)(=O)c2cccc(Cl)c2)cc1
1.68 |  |  |  |  | O=C(COc1ccc(Cl)cc1Cl)N(Cc1ccc(NS(=O)(=O)O)cc1)c1ccccc1
1.45 | 123 | 24.7 | 102 | 112 | CC(C)(C)OC(=O)N1CCC(C(=O)N(Cc2ccc(NS(=O)(=O)O)cc2)c2ccccc2)CC1
1.24 |  |  |  |  | O=S(=O)(O)Nc1ccc(CN(c2nc(-c3ccccc3)cs2)S(=O)(=O)c2cccc(F)c2)cc1
0.995 | > 250 | 25.6 | > 250 | 130 | O=S(=O)(O)Nc1ccc(CNc2nc(-c3cccs3)cs2)cc1
0.968 | 20.5 | 6.41 | 31.3 | 34.8 | COc1cccc(S(=O)(=O)N(Cc2ccc(NS(=O)(=O)O)cc2)c2nc(-c3ccccc3)cs2)c1
